Test results: patent US5206234A, “Benzolactam analogs as antagonists of CCK” (priority 1991, dated 1993)
pIC50: −log10 of the molar value. Each block holds one compound with its values, some of them ahead of it.

Columns and labels:
[1] = system: CCK-A receptors; details: cited from earlier work
[2] = system: exploratory behavior of the rat; assay: Exploratory behavior in automated activity cages, novel environment; assay type: in vivo, rat (Male Sprague Dawley)
Protocol: (§1) B. The effects of CCK-8 and compound A on the exploratory behavior of the rat were examined in automated activity cages and by direct observation. It is known that exogenous CCK-8 decreases exploratory behavior in rats in a novel environment by accelerating the process of habituation. [See Crawley, Pharm. Biochem & Behav. 20, 23-27 (1984).]
Expt 1. Male Sprague Dawley rats were injected ([…].) with CCK-8 and immediately placed in automated activity cages. Activity was measured for 30 minutes past injection.
Expt 2. Male SD rats were injected (s.c.) with the CCK antagonist compound A (0.0001-10 mg/kg) and immediately placed in the automated activity cages.

[3] = system: exploratory behavior of the rat; assay: Exploration in a novel environment by direct observation (perspex cage); assay type: in vivo; details: 0.1 mg/kg
Text: as §1
Expt 3. In order to assess further the effect of Compound A on exploration in a novel environment, the motoric hehaviors of rats placed in a perspex cage was recorded by direct observation for a 15 minute period 15 minutes after treatment with Compound A.
Experimenters (unaware of the treatments the animals had received) recorded the frequency and duration of rearing, sniffing, grooming and cage crossing using a keypad interfaced to a BBC microcomputer.

[4] = system: anxiety (mice); assay: Black/white exploration test (anxiolytic activity); assay type: in vivo, mouse (male DBA2)
Text: The black/white exploration test [Crawley et al. Pharmacology, Biochemistry and Behav. 13, 167 (1980)] is a simple animal model of anxiety. Rodents placed in a two compartment box which consists of a brightly lit, white painted side and a dimly lit, black painted side, display a marked preference for the black side of the apparatus. This behavior is caused by the aversive properties of the brightly lit, white painted section. Classical anxiolytic drugs [such as diazepam, see Crawley, supra] and novel anxiolytic drugs [such as 5HT3 antagonists, see Jones et al. Br. J. Pharm.
A. Naive male DBA2 mice (25-30) were housed on a reversed light/dark cycle and tested during the dark phase of the cycle under dim red light. The apparatus consisted of an open topped box (40 cm long×27 cm wide×27 cm high) divided into a small area (2/5) and a large area (3/5) by a partition that extended 20 cm above the walls. There was a 7.5×7.5 cm opening in the partition at floor level. The small compartment was painted black and the large compartment white. The floor of each compartment was marked into 9 cm squares. The white compartment was illuminated by a 100 W tungsten bulb 17 cm above the box and the black compartment by a similarly placed 60 W red bulb.
Animals that had been injected with drug or vehicle were placed individually into the centre of the white area and their behavior observed during a 5 minute period by remote video recording. Four behavioral parameters were recorded every minute: the number of exploratory rears in the white and black sections, the number of line crossings in the black and white sections, the number of transitions between the two sections and the time spent in the black and white sections. Animals were tested in treatment groups of 8-10 and vehicle controls were run on each test day. Data were analysed by ANOVA and Dunnetts test.

[5] = biological target: T1, CCK receptor (Brain, cerebral cortex) (Cavia porcellus, UniProt H0VZC5); assay: CCK Receptor Binding (Brain), inhibition of 125I-CCK-33 binding; set-up: species or system guinea pig (Male Hartley); details: head prints ^25 I-CCK; guinea pig cerebral cortex
T1 construct: Cerebral cortex was dissected and used as a receptor source; from tissue; host or cells: cerebral cortex membranes of male Hartley guinea pigs
T1 sequence (H0VZC5 1-426): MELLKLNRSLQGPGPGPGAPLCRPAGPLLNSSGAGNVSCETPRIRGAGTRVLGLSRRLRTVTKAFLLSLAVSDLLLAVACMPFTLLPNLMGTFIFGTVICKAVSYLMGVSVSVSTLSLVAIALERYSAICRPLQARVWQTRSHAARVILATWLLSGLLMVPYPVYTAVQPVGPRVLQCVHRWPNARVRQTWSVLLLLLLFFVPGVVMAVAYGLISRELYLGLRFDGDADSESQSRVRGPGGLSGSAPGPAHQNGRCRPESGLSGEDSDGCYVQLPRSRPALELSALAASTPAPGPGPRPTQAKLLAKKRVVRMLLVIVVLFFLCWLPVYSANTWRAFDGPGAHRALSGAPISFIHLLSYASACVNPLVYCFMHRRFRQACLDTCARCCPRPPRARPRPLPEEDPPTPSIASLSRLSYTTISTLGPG
Protocol: CCK-33 was radiolabeled and the binding was performed according to the description for the pancreas method with modifications according to Saito et al., J. Neurochem. 37:483-490, 1981.
Male Hartley guinea pigs (300-500 g) were sacrificed by decapitation and the brains were removed and placed in ice-cold 50 mM Tris HCl plus 7.58 g/l Trizma-7.4 (pH 7.4 at 25° C.). Cerebral cortex was dissected and used as a receptor source. Each gram of fresh guinea pig brain tissue was homogenized in 10 ml of Tris/Trizma buffer with a Brinkman polytron PT-10. The homogenates were centrifuged at 42,000 g for 15 minutes. Pellets were resuspended in Tris Buffer, centrifuged as above and resuspended in 200 volumes of binding assay buffer (10 mM N-2-hydroxyethyl-piperazine-N'-2-ethane sulfonic acid (HEPES), 5 mM MgCl2, 0.25 mg/ml bacitracin, 1 mM ethylene glycol-bis-(β-aminoethylether-N,N'-tetraacetic acid) (EGTA), and 0.4% bovine serum albumin (BSA)). […] All assays were run in duplicate or triplicate. The reaction mixtures were incubated at 25° C. for 2 hours and centrifuged in a Beckman Microfuge (4 minutes) immediately after adding 1 ml of ice-cold incubation buffer. The supernatant was aspirated and discarded, pellets were counted with a Beckman gamma 5000.

[6] = biological target: T2, CCK receptor (Pancreas) (Rattus norvegicus, UniProt P30551); assay: CCK Receptor Binding (Pancreas), inhibition of 125I-CCK-33 binding; set-up: species or system rat (Male Sprague-Dawley); details: 125I-CCK-33, rat pancreas membranes
T2 construct: The whole pancreas was dissected free of fat tissue and was homogenized; from tissue; host or cells: pancreas membranes of male Sprague-Dawley rats
T2 sequence (P30551 1-444): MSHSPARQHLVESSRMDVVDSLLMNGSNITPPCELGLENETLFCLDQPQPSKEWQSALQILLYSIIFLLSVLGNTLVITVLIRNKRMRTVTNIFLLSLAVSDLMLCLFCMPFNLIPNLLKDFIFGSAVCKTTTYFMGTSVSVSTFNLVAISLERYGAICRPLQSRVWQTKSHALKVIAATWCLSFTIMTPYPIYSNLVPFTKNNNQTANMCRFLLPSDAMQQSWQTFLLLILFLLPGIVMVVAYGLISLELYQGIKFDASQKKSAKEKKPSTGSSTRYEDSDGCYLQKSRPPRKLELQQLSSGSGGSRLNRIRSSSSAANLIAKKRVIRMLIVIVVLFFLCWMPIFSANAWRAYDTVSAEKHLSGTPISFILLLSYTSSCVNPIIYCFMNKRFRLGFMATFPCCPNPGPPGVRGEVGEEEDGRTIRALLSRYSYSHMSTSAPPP
Protocol: CCK-33 was radiolabeled with ^125 I-Bolton Hunter reagent (2000 Ci/mmole) as described by Sankara et al. (J. Biol. Chem. 254: 9349-9351, 1979). Receptor binding was performed according to Innis and Snyder (Proc. Natl. Acad. Sci. 77, 6917-6921, 1980) with the minor modification of adding the additional protease inhibitors, phenylmethane sulfonyl fluoride and o-phenanthroline. The latter two compounds have no effect on the ^125 I-CCK receptor binding assay.
Male Sprague-Dawley rats (200-350 g) were sacrificed by decapitation. The whole pancreas was dissected free of fat tissue and was homogenized in 20 volumes of ice-cold 50 mM Tris HCl (pH 7.7 at 25° C.) with a Brinkmann Polytron PT 10. The homogenates were centrifuged at 48,000 g for 10 min. Pellets were resuspended in Tris Buffer, centrifuged as above and resuspended in 200 volumes of binding assay buffer (50 mM Tris HCl, pH 7.7 at 25° C., 5 mM dithiothrietol, 0.1 mM bacitracin, 1.2 mM phenylmethane sulfonyl fluoride and 0.5 mM o-phenanthroline). […] All assays were run in duplicate or triplicate. The reaction mixtures were incubated at 37° C. for 30 minutes and centrifuged in a Beckman Microfuge (4 minutes) immediately after adding 1 ml of ice-cold incubation buffer. The supernatant was aspirated and discarded, pellets were counted with a Beckman gamma 5000. For Scatchard analysis (Ann. N.Y. Acad. Sci. 51: 660, 1949), ^125 I-CCK-33 was progressively diluted with increasing concentrations of CCK-33.
A Ki value (dissociation constant of inhibitor) of the compounds of Formula I was estimated.

[7] = biological target: T3, Gastrin receptor (Gastric Glands) (Cavia porcellus, UniProt H0VZC5); assay: Gastrin Receptor Binding in Guinea Pig Gastric Glands; set-up: species or system guinea pig (male Hartley); details: head prints ^25 I-Gastrin, read-out: Receptor binding IC50, 125I-Gastrin Gastric Glands
T3 construct: from tissue; host or cells: gastric mucosal glands of male Hartley guinea pigs
T3 sequence (H0VZC5 1-426): T1 sequence (H0VZC5 1-426)
Protocol: Guinea pig gastric mucosal glands were prepared by the procedure of Berglingh and Obrink Acta Physiol. Scand. 96: 150 (1976) with a slight modification according to Praissman et al. C. J. Receptor Res. 3: (1983). Gastric mucosa from guinea pigs (300-500 g body weight, male Hartley) were washed thoroughly and minced with fine scissors in standard buffer consisting of the following: 130 mM NaCl, 12 mM NaHCO3, 3 mM NaH2 PO4, 3 mM Na2 HPO4, 3 mM K2 HPO4, 2 mM MgSO4, 1 mM CaCl2, 5 mM glucose and 4 mM L-glutamine, 25 mM HEPES at pH 7.4. The minced tissues were washed and then incubated in a 37° C. shaker bath for 40 minutes with the buffer containing 0.1% collagenase and 0.1% BSA and bubbled with 95% O2 and 5% CO2. The tissues were passed twice through a 5 ml glass syringe to liberate the gastric glands, and then filtered through 200 mesh nylon. The filtered glands were centrifuged at 270 g for 5 minutes and washed twice by resuspension and centrifugation.
The washed guinea pig gastric glands prepared as above were resuspended in 25 ml of standard buffer containing 0.25 mg/ml of bacitracin. For binding studies, to 220 μl of gastric glands in triplicate tubes, 10 μl of buffer (for total binding) or gastrin (1 μM final concentration, for nonspecific binding) or test compound and 10 μl of ^125 I-gastrin (NEN, 2200 Ci/mmole, 25 pM final) or ^3 H-pentagastrin (NEN 22 Ci/mmole, 1 nM final) were added. The tubes were aerated with 95% O2 and 5% CO2 and capped. The reaction mixtures after incubation at 25° C. for 30 minutes were filtered under reduced pressure on glass G/F B filters (Whatman) and immediately washed further with 4×4 ml of standard buffer containing 0.1% BSA. The radioactivity on the filters was measured using a Beckman gamma 5500 for ^125 I-gastrin or liquid scintillation counting for ^3 H-pentagastrin.

[8] = system: CCK-B receptors; details: cited from earlier work

Compound: CSCC[C@H](NC(=O)[C@H](Cc1ccc(O)cc1)NC(=O)[C@@H](N)CC(=O)O)C(=O)NCC(=O)N[C@@H](Cc1c[nH]c2ccccc12)C(=O)N[C@@H](CCSC)C(=O)N[C@@H](CC(=O)O)C(=O)N[C@@H](Cc1ccccc1)C(N)=O [CCK-8d]
Affinity for CCK-A receptors [1]: lower affinity

Compound: CN1C(=O)[C@@H](NC(=O)c2cc3ccccc3[nH]2)N=C(c2ccccc2)c2ccccc21 [Compound A, 3(S)-(-)-1,3-dihydro-3-(2-indolecarbonylamino)-1-methyl-5-phenyl-2H-1,4-benzodiazepin-2-one]
Habituation and period of exploratory activity ([2]; 0.0001-10 mg/kg s.c., F(6,124)=2.54, p<0.05): delayed habituation and prolonged the period of exploratory activity of the rats
Level of activity at 25 minutes ([2]; 0.1 mg/kg s.c., 25 minutes, F(6.124)=3.18, p<0.01): significantly above controls
Level of activity at 25 minutes ([2]; doses higher and lower than 0.1 mg/kg, bell-shaped dose response): no significant effect on activity
Cage crossing ([3]; F(3,43)=3.79, P<0.05): significantly increased
Sniffing ([3]; F(3,43)=3.96, P<0.01): significantly increased
Rearing ([3]; F(3,43)=4.77, P<0.01): significantly increased
Preference for locomotion (line crossings) in the black side ([4]; 0.5, 5.0 and 500 ug/kg): abolished the preference for locomotion (line crossings) in the black side
Difference in time spent in the black and white side ([4]; 5.0 and 500 ug/kg): abolished
Active dose range ([4]; black/white exploration test, mice): 0.05 to 5.0 µg/kg
Preference for rearing in the black side ([4]; doses of 0.05, 0.5, 5.0 and 500 ug/kg): significantly decreased the preference for rearing in the black side

pIC50 [5]: 6.19
pIC50 [6]: 5.77
pIC50 [7]: 6.34
Compound: O=C(Nc1cccc2ccccc12)NC1CCc2ccccc2N(CC(=O)N2CCCC2)C1=O (stereo not shown) [Example 11, 1-{[2,3,4,5-Tetrahydro-3-{[[(1-naphthalenyl)amino]carbonyl]amino}-2-oxo-1H-1-benzazepin-1-yl]acetyl}pyrrolidine]

pIC50 [5]: 6.18
pIC50 [6]: 6.77
pIC50 [7]: 6.89
Compound: Cc1ccc(NC(=O)NC2CCc3ccccc3N(CC(=O)OC(C)(C)C)C2=O)cc1 (stereo not shown) [Example 12]

Compound: CSCC[C@H](NC(=O)[C@H](Cc1c[nH]c2ccccc12)NC(=O)CCNC(=O)OC(C)(C)C)C(=O)N[C@@H](CC(=O)O)C(=O)N[C@@H](Cc1ccccc1)C(N)=O [pentagastrin]
Affinity for CCK-B receptors [8]: high affinity

Compound: gastrin: structurally related neuropeptides which exist in gastrointestinal tissue and in the central nervous system
Affinity for CCK-A receptors [1]: lower affinity
